The test system of series [1] is A. baumannii ATCC 19606. In kind it is cell-based, Acinetobacter baumannii. Particulars: ATCC 19606, 24 h. The source says:
In this study, we used the following pathogenic bacterial strains: A. baumannii ATCC 19606, E. coli ATCC 11775, E. coli AIC221 [E. coli MG1655 phnE_2::FRT (control strain for AIC 222)], E. coli AIC222 [E. coli MG1655 pmrA53 phnE_2::FRT (polymyxin resistant; colistin-resistant strain)], K. pneumoniae ATCC 13883, P. aeruginosa PAO1, P. aeruginosa PA14, Staphylococcus aureus ATCC 12600, S. aureus ATCC BAA-1556 (methicillin-resistant strain), Enterococcus faecalis ATCC 700802 (vancomycin-resistant strain), and Enterococcus faecium ATCC 700221 (vancomycin-resistant strain). Pseudomonas Isolation (P. aeruginosa strains) agar plates were exclusively used in the case of Pseudomonas species. All the other pathogens were grown in Luria–Bertani (LB) broth and on LB agar. In all the experiments, bacteria were inoculated from one-isolated colony and grown overnight (16 h) in a liquid medium at 37 °C. On the following day, inoculums were diluted 1:100 in fresh media and incubated at 37 °C to mid-logarithmic phase.
Broth microdilution assays were conducted to establish the MIC for each peptide[53]–[55]. Peptides were added to untreated polystyrene 96-well microtitre plates and serially diluted twofold in sterile water, ranging from 0 to 64 μmol l^−1. A bacterial inoculum at a concentration of 10^6 CFU ml^−1 in LB medium was then mixed in a 1:1 ratio with the peptide solution. […] Each assay was performed in three independent replicates.

Series [2] has as its system human embryonic kidney (HEK293T) cells. Nature of the series: Cytotoxicity assay (MTT). In kind it is cell-based. Particulars: 24 h exposure, concentration range tested 4–64 μmol l^−1 (method: 8–128 μmol l^−1), three biological replicates. On the procedure:
One day before the experiment, an aliquot of 100 μl of the cells at 50,000 cells ml^−1 was seeded into each well of the cell-treated 96-well plates used in the experiment. The attached HEK293T cells were then exposed to increasing concentrations of the peptides (8–128 μmol l^−1) for 24 h. After the incubation period, we performed the 3-(4,5-dimethylthiazol-2-yl)-2,5-diphenyltetrazolium bromide tetrazolium reduction assay (MTT assay)[55]. The MTT reagent was dissolved at 0.5 mg ml^−1 in the medium without phenol red and was used to replace cell culture supernatants containing the peptides (100 μl per well). The samples were incubated for 4 h at 37 °C in a humidified atmosphere containing 5% CO2, yielding the insoluble formazan salt. The resulting salts were then resuspended in hydrochloric acid (0.04 mol l^−1) in anhydrous isopropanol and quantified by spectrophotometric measurements of absorbance at 570 nm. All assays were done as three biological replicates.

Series [3] has as its system A. baumannii ATCC 19606. Nature of the series: Cytoplasmic membrane depolarization assay (DiSC3-5). In kind it is cell-based, Acinetobacter baumannii. The settings on record: A. baumannii ATCC 19606, peptides at their MIC, 60 min; compared with polymyxin B and levofloxacin. On the procedure:
The cytoplasmic membrane depolarization assay was performed using the membrane-potential-sensitive dye DiSC3-5. A. baumannii ATCC 19606 in the mid-logarithmic phase were washed and resuspended at 0.05 OD ml^−1 (optical value at 600 nm) in HEPES buffer (pH 7.2) containing 20 mmol l^−1 of glucose and 0.1 mol l^−1 of KCl. DiSC3-5 (20 μmol l^−1) was added to the bacterial suspension (100 μl per well) for 15 min to stabilize the fluorescence, which indicates the incorporation of the dye into the bacterial membrane, and then the peptides were mixed 1:1 with the bacteria to a final concentration corresponding to their MIC values. Membrane depolarization was then followed by reading changes in the fluorescence (λex = 622 nm, λem = 670 nm) over time for 60 min. The relative fluorescence was calculated using the untreated control (buffer + bacteria + fluorescent dye) and polymyxin B (positive control) as baselines and the following equation was applied to reflect the percentage of difference between the baselines and the sample: Percentagedifference=100×(fluorescencesample−fluorescenceuntreatedcontrol)/fluorescenceuntreatedcontrol.

No end group written: not given here.

In the case of “RNLVRWVAGLKLKKKVIKIKVGIGRWANIK [Hydrodamin-3-9]”, the “MIC, A. baumannii ATCC 19606” value against A. baumannii ATCC 19606 [1] was found to be 8 µM.
Take LRIKNHWIHFRVLAKALW [Hesperelin-3-9]: in series [2], the “cytotoxicity against HEK293T cells” value is recorded as “generally non-toxic, except for hesperelin-3-9”.
Consider KTLKIIRLLF [Mammuthusin-3], for which, in the series on A. baumannii ATCC 19606 [1], the “MIC, A. baumannii ATCC 19606” value came to 32 µM.
Consider “IASLHARSIARLLKRWINVHQGLGLKW [Mammuthusin-2-7]”, for which, in the series on A. baumannii ATCC 19606 [3], the “cytoplasmic membrane depolarization (DiSC3-5 fluorescence)” value is “highest depolarization activity within its family”.
With KRKRGLKLATALSLNNKF [Mylodonin-2], in the series with A. baumannii ATCC 19606 [1], the “MIC, A. baumannii ATCC 19606” value was 64 µM.
For HKIKINTIKLKIKLKI [Lophiosin-1-3], the “cytoplasmic membrane depolarization (DiSC3-5 fluorescence)” value in the series on A. baumannii ATCC 19606 [3] was “effective depolarizers”.
